Test results published in patent US6147062A, “Phosphoryl hydrazine insecticides” (priority 1999, dated 2000).
Converted amounts (≈) assume the structure as drawn.

Key:
[1] = test system: southern corn rootworm, Diabrotica undecimpunctata howardi; test: Corn Rootworm Screening Test; conditions: in Zea mays, soil, 240 h, read-out: Percent Control of Corn Rootworm
[2] = test system: Southern Root-Knot Nematode Meloidogyne incognita; test: Nematode Screening Test; format: in vivo; conditions: 11400 grams per hectare; soil, cucumber roots, 21 days
Experimental: For the nematode test, soil was homogeneously inoculated with nematode eggs (Southern Root-Knot Nematode Meloidogyne incognita) at a rate of 20000 eggs per 200 milliliters (ml) of soil extracted from a macerated blend of tomato roots heavily knotted with the root-knot nematode. Ten ml of the 150 ppm test solution were added to 200 ml of the inoculated soil in a 16 oz. jar to give a concentration by volume of 11400 grams per hectare (gm/ha). […] The jars were shaken to ensure thorough mixing, immediately uncapped, and allowed to air for two hours. The soil was placed into a 7.5 cm plastic pot and three cucumber (Cucumis sativus) seeds were planted. The pots were held under greenhouse conditions for 21 days. Upon termination, the cucumber roots were examined for the presence of knots. Results are summarized in Table 2 and are expressed as percent knot reduction.

[3] = test system: Mexican bean beetle (Epilachna varivestis); test: Mexican Bean Beetle Test; format: in vivo; conditions: 600 grams per hectare, 48 hours after infestation, treated lima bean leaf
Experimental: (§1) The test solution was sprayed using a moving single boom tee jet sprayer at a volume equivalent to 935 liters/ha onto a petri dish containing a lima bean (Phaseolus limensis var: Woods' Prolific) leaf placed on a moistened piece of filter paper. After the leaf dried it was infested with ten beetles (Epilachna varivestis) and covered. The percent control was evaluated 48 hours after infestation.

[4] = test system: Trichostrongylus colubriformis (McMaster susceptible); test: Anthelmintic Test, inhibition of larval development; conditions: 144 h, read-out: MIC (minimum inhibitory concentration)
Experimental: (§2) Compounds were tested as inhibitors of larval development in Haemonchus contortus (McMaster, benzimidazole susceptible) isolates, Trichostrongylus colubriformis (McMaster susceptible) and Ostertagia circumcincta (Glenlothian susceptible).
(§3) Eggs of the parasitic helminths, isolated from sheep feces, were applied to wells of a microtiter plate which contained a gradient of concentrations of the test compound in nutrient solution. After the eggs hatched, L1 larvae developed through to the L3 stage over 6 days. Development was inhibited and a minimum inhibitory concentration in ppm was determined. See for example, E. Lacey et al p 177-184 in: Resistance of Parasites to Antiparasitic Drugs, edited by J. C. Boray MSD AGVET, Rahway, N.J.

[5] = test system: Haemonchus contortus (McMaster, benzimidazole susceptible); test: as above; conditions: 144 h, read-out: MIC (minimum inhibitory concentration)
Experimental: as §2, §3

[6] = test system: Ostertagia circumcincta (Glenlothian susceptible); test: as above; conditions: Teladorsagia circumcincta, 144 h, read-out: MIC (minimum inhibitory concentration)
Experimental: as §2, §3

[7] = test system: Potato leafhopper (Empoasca fabae); test: Potato Leafhopper Test; format: in vivo; conditions: 600 grams per hectare; 72 hours after infestation; treated fava bean leaf; read-out: Percent Control of Potato leaf hopper
Experimental: as §1, with “fava” for “lima”, “(Vicia faba)” for “(Phaseolus limensis var: Woods' Prolific)”, “five mixed nymphs (Empoasca fabae)” for “ten beetles (Epilachna varivestis)”, “72” for “48”

Row | SMILES | mortality at 11400 g/ha, 11400 g/ha [1] | Percent Control of Root Knot Nematode (percent knot reduction) [2] | percent control at 600 g/ha [3] | MIC [4] | MIC [5] | MIC [6] | mortality at 600 g/ha, 600 g/ha [7]
1 | CCOP(=S)(OCC)N(NC(=O)C(Cl)(Cl)Cl)C(C)(C)C [Compound 1, 1-(O,O-diethylthiophosphoryl)-1-tertbutyl-2-trichloroacetyl Hydrazine] | 100% | 98% | 100% | – | – | – | –
2 | CCCOP(=S)(OCCC)N(NC(=O)C(Cl)(Cl)Cl)C(C)(C)C [Compound 2] | 87% | 0% | 100% | – | – | – | –
3 | CCCOP(=S)(OCC)N(NC(=O)C(Cl)(Cl)Cl)C(C)(C)C (centres unmarked) [Compound 3] | 98% | 74% | 100% | – | – | – | –
4 | CCOP(=S)(OCC(C)(C)C)N(NC(=O)C(Cl)(Cl)Cl)C(C)(C)C (centres unmarked) [Compound 4] | 0% | 0% | 100% | – | – | – | –
5 | CCOP(=S)(OC(C)CC)N(NC(=O)C(Cl)(Cl)Cl)C(C)(C)C (centres unmarked) [Compound 5] | 96% | 0% | 100% | – | – | – | –
6 | CCOP(=S)(OC(C)C)N(NC(=O)C(Cl)(Cl)Cl)C(C)(C)C (centres unmarked) [Compound 6] | 100% | 54% | 100% | – | – | – | –
7 | CCOP(=S)(OCC)N(NC(=O)C(F)(Cl)Cl)C(C)(C)C [Compound 7] | 96% | 0% | 80% | – | – | – | –
8 | CCOP(=S)(OCC)N(NC(=O)C(Br)(Br)Br)C(C)(C)C [Compound 8] | 0% | 98% | 30% | – | – | – | –
9 | COP(=S)(OC)N(NC(=O)C(Cl)(Cl)Cl)C(C)(C)C [Compound 9] | 100% | 100% | 100% | – | – | – | –
10 | CCOP(=S)(OCC)N(NC(=O)C(Cl)Cl)C(C)(C)C [Compound 10, 1-(O,O-diethylthiophosphoryl)-1-tertbutyl-2-dichloroacetyl Hydrazine] | 0% | 100% | 100% | 12.5 µg/mL (≈ 35.6 µM) | 1.56 µg/mL (≈ 4.44 µM) | 1.56 µg/mL (≈ 4.44 µM) | –
11 | CCOP(=S)(OCC)N(NC(=O)CCl)C(C)(C)C [Compound 11, 1-(O,O-diethylthiophosphoryl)-1-tertbutyl-2-monochloroacetyl Hydrazine] | 0% | 43% | – | – | – | – | 100%
12 | CCOP(=S)(OCC)N(NC(=O)C(F)(F)F)C(C)(C)C [Compound 12] | 100% | 0% | – | – | – | – | 100%
13 | COP(=S)(OC)N(NC(=O)C(Cl)Cl)C(C)(C)C [Compound 13] | 0% | 100% | – | – | – | – | 100%
14 | COP(=S)(OC)N(NC(=O)CCl)C(C)(C)C [Compound 14] | 0% | 0% | – | – | – | – | 100%
15 | CCOP(=S)(OCC)N(NC(=O)C(F)(F)Cl)C(C)(C)C [Compound 15] | 0% | 0% | – | – | – | – | 100%
16 | COCCOP(=S)(OCCOC)N(NC(=O)C(Cl)(Cl)Cl)C(C)(C)C [Compound 16] | 66% | 0% | – | – | – | – | 100%
17 | COCCOP(=S)(OCCOC)N(NC(=O)C(Cl)Cl)C(C)(C)C [Compound 17] | 0% | 0% | – | – | – | – | 60%
18 | CCOP(=S)(OCCOC)N(NC(=O)C(Cl)(Cl)Cl)C(C)(C)C (centres unmarked) [Compound 18] | 0% | 25% | – | – | – | – | 100%
19 | CCOP(=S)(OCCOC)N(NC(=O)C(Cl)Cl)C(C)(C)C (centres unmarked) [Compound 19] | 0% | 90% | – | – | – | – | 100%
20 | CCOP(=S)(c1ccccc1)N(NC(=O)C(Cl)(Cl)Cl)C(C)(C)C (centres unmarked) [Compound 22] | 0% | – | – | – | – | – | 100%
